Measured values reported in ChEMBL document CHEMBL5576083, “Structure-Based Design and Synthesis of Covalent Inhibitors for Deubiquitinase and Acetyltransferase ChlaDUB1 of Chlamydia trachomatis” (J Med Chem, 2024).
≈ marks a conversion by molar mass, not a printed value. Calls of active or inactive are those of the source. The rule behind the calls is not given here.

Legend:
[1] = Covalent inhibition of C-terminal 6His-tagged Chlamydia trachomatis DUB1 (130 to 401 residues) expressed in Escherichia coli Rosetta 2 (DE3) cells using Ub-Rh110Gly as fluorogenic substrate preincubated for 1 hr followed by substrate addition by plate reader analysis
Chlamydia trachomatis [2] = assay: Anti-chlamydial activity against Chlamydia trachomatis serovar L2 infected in human HEp-2 cells assessed as inhibition of chlamydial inclusion incubated for 24 hrs by Alexa488/DAPI staining based immunofluorescence assay; type: functional, organism-based; settings: serovar L2, HEp-2, 24 h
[3] = molecular target: T1, Ubiquitin carboxyl-terminal hydrolase isozyme L1 (Homo sapiens, UniProt P09936); assay: Inhibition of 6His-tagged human UCHL1 using Ub-Rh110Gly as fluorogenic substrate preincubated for 1 hr followed by substrate addition by plate reader analysis
T1 sequence (P09936 whole entry): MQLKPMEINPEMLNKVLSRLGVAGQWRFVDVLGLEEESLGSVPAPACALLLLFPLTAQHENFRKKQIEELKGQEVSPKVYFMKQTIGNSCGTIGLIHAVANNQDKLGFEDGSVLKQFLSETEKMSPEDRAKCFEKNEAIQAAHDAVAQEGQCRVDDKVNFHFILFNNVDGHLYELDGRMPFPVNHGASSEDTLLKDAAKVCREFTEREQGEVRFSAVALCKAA

[4] = (§1) Binding affinity to C-terminal 6His-tagged Chlamydia trachomatis DUB1 (130 to 401 residues) expressed in Escherichia coli Rosetta 2 (DE3) cells using Ub-Rh110Gly as fluorogenic substrate assessed as inhibition constant preincubated for 60 mins followed by substrate addition measured after 360 mins by plate reader analysis
Chlamydia trachomatis [5] = assay: as §1, with “Kinact” for “inhibition constant”; settings: time 420.0 min
Chlamydia trachomatis [6] = assay: as §1, with “ratio of Kinact/Ki” for “inhibition constant”; settings: time 420.0 min
Chlamydia trachomatis [7] = assay: Antimicrobial activity against Chlamydia trachomatis serovar L2 infected in human HeLa cells assessed as reduction in inclusion area at 6.25 ug/ml measured after 24 hrs of post-infection by microscopic analysis (reference value: 79.96 microm2); type: functional; settings: dose 6.25 µg/ml
Chlamydia trachomatis [8] = assay: Antimicrobial activity against Chlamydia trachomatis serovar L2 infected in human HeLa cells assessed as reduction in inclusion area at 12.5 ug/ml measured after 24 hrs of post-infection by microscopic analysis (reference value: 79.96 microm2); type: functional; settings: dose 12.5 µg/ml
Chlamydia trachomatis [9] = assay: Antimicrobial activity against Chlamydia trachomatis serovar L2 infected in human HeLa cells assessed as reduction in microbial progeny at 1.56 ug/ml measured after 24 hrs of post-infection by immunofluorescence analysis; type: functional; parameters: scale not given: the % may be the effect or the level left; settings: dose 1.56 µg/ml
Chlamydia trachomatis [10] = assay: Antimicrobial activity against Chlamydia trachomatis serovar L2 infected in human HeLa cells assessed as reduction in microbial progeny at 6.25 ug/ml measured after 24 hrs of post-infection by immunofluorescence analysis; type: functional; parameters: scale not given: the % may be the effect or the level left; settings: dose 6.25 µg/ml
Chlamydia trachomatis [11] = assay: Antimicrobial activity against Chlamydia trachomatis serovar L2 infected in human HeLa cells assessed as reduction in inclusion circumference at 6.25 ug/ml measured after 24 hrs of post-infection by microscopic analysis (reference value: 33.2 micrometer); type: functional; settings: dose 6.25 µg/ml
Chlamydia trachomatis [12] = assay: Antimicrobial activity against Chlamydia trachomatis serovar L2 infected in human HeLa cells assessed as reduction in microbial progeny at 3.13 ug/ml measured after 24 hrs of post-infection by immunofluorescence analysis; type: functional; parameters: scale not given: the % may be the effect or the level left; settings: dose 3.13 µg/ml
Chlamydia trachomatis [13] = assay: Antimicrobial activity against Chlamydia trachomatis serovar L2 infected in human HeLa cells assessed as reduction in microbial progeny at 3.13 ug/ml measured after 48 hrs of post-infection by immunofluorescence analysis; type: functional; parameters: scale not given: the % may be the effect or the level left; settings: dose 3.13 µg/ml
Chlamydia trachomatis [14] = assay: Antimicrobial activity against Chlamydia trachomatis serovar L2 infected in human HeLa cells assessed as reduction in inclusion circumference at 12.5 ug/ml measured after 24 hrs of post-infection by microscopic analysis (reference value: 33.2 micrometer); type: functional; settings: dose 12.5 µg/ml
Chlamydia trachomatis [15] = assay: Antimicrobial activity against Chlamydia trachomatis serovar L2 infected in human HeLa cells assessed as reduction in microbial progeny at 1.56 ug/ml measured after 48 hrs of post-infection by immunofluorescence analysis; type: functional; parameters: scale not given: the % may be the effect or the level left; settings: dose 1.56 µg/ml
Chlamydia trachomatis [16] = assay: Antimicrobial activity against Chlamydia trachomatis serovar L2 infected in human HeLa cells assessed as reduction in microbial progeny at 12.5 ug/ml measured after 24 hrs of post-infection by immunofluorescence analysis; type: functional; parameters: scale not given: the % may be the effect or the level left; settings: dose 12.5 µg/ml
Chlamydia trachomatis [17] = assay: Antimicrobial activity against Chlamydia trachomatis serovar L2 infected in human HeLa cells assessed as fold increase in inclusion forming unit at 1 ug/ml measured after 48 hrs of post-infection by immunofluorescence based microscopic analysis; type: functional; settings: dose 1 µg/ml
Chlamydia trachomatis [18] = assay: Antimicrobial activity against Chlamydia trachomatis serovar L2 infected in human HeLa cells assessed as reduction in inclusion forming unit at 1 ug/ml measured at 24 to 48 hrs of post-infection by immunofluorescence based microscopic analysis; type: functional, organism-based; settings: dose 1.0 µg/ml, time 24-48 hrs
[19] = molecular target: Ubiquitin carboxyl-terminal hydrolase 7 (Homo sapiens) (UniProt Q93009); assay: Binding affinity to USP7 (208 to 1102 residues) (unknown origin) expressed in Sf9 insect cells assessed as ratio of Kinact/Ki incubated for 3 hrs by fluorescence based analysis
[20] = molecular target: Ubiquitin carboxyl-terminal hydrolase isozyme L1 (Homo sapiens) (UniProt P09936); assay: Binding affinity to human UCHL1 (1 to 223 residues) expressed in Escherichia coli Rosetta 2 (DE3) cells using Ub-Rh110Gly as fluorogenic substrate assessed as ratio of Kinact/Ki by fluorescence based analysis

Sequence of Ubiquitin carboxyl-terminal hydrolase 7 (Homo sapiens) (Q93009 whole entry, looked up, the tested form may be a part): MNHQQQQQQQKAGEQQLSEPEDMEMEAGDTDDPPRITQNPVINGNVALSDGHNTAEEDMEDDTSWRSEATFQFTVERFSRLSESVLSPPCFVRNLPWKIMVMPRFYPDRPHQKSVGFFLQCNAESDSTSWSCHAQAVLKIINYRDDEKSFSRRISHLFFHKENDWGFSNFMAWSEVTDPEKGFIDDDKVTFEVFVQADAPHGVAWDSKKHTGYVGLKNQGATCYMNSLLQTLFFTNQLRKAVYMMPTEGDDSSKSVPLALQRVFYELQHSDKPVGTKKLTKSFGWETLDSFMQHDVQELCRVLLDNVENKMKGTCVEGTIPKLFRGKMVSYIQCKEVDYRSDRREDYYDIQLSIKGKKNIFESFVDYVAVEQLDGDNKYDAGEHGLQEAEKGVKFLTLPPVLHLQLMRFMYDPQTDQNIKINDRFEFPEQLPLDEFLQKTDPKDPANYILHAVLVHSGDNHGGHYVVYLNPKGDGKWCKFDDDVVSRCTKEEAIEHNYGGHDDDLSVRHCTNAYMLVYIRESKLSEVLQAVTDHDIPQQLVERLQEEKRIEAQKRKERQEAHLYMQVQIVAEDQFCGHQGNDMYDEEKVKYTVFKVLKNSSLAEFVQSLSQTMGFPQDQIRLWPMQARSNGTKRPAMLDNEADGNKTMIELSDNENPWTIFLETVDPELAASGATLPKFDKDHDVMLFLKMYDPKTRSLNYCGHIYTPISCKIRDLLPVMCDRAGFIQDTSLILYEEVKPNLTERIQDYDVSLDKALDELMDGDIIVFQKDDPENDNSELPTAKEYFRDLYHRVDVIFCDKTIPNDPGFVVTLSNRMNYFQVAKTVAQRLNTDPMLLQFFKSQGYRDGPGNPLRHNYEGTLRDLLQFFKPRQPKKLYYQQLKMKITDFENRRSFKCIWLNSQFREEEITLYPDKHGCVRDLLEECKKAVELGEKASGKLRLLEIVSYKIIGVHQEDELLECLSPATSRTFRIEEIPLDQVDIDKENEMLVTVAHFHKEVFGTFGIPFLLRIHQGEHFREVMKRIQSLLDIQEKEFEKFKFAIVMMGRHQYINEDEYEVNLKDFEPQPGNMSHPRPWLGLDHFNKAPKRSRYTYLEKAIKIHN

Compound	IC50 [1]	pIC50 [1]	IC50 (Chlamydia trachomatis [2])	other results
N#Cc1ncc(C(=O)NCc2ccc(C(=O)NCCN3CCOCC3)cc2)cn1	51 µM	4.29		
Cc1ccccc1CNC(=O)c1ccc(CNC(=O)c2cnc(C#N)nc2)cc1	18 µM	4.75	16.9 µg/mL (≈ 43.8 µM)	
CC(=O)c1ccc(CNC(=O)c2cnc(C#N)nc2)cc1	74 µM	4.13	47.4 µg/mL (≈ 169 µM)	
N#Cc1ncc(C(=O)NCc2ccc(C(=O)NCCC3CC3)cc2)cn1	25 µM	4.6	40.7 µg/mL (≈ 116 µM)	
CCCN(CCC)C(=O)c1ccc(CNC(=O)c2cnc(C#N)nc2)cc1	74 µM	4.13		
COc1ccc(CNC(=O)c2ccc(CNC(=O)c3cnc(C#N)nc3)cc2)cc1	521 µM	3.28		
Cc1ccc(CNC(=O)c2ccc(CNC(=O)c3cnc(C#N)nc3)cc2)cc1	241 µM	3.62		
N#Cc1ncc(C(=O)NCc2ccc(C(=O)NCCc3ccccc3)cc2)cn1	64 µM	4.2		
Cc1nn(C)c2cc(-c3ccc(-n4cnc(NC(=O)[C@H]5CCN(C#N)C5)c4)cc3)ccc12				IC50 [3]: < 1 µM
N#Cc1ncc(C(=O)NCc2ccc(C(=O)Cc3ccccc3)cc2)cn1	24 µM	4.63		
COc1cccc(CNC(=O)c2ccc(CNC(=O)c3cnc(C#N)nc3)cc2)c1	81 µM	4.09	> 50 µg/mL	
N#Cc1ncc(C(=O)NCc2ccc(C(=O)CCN3CCOCC3)cc2)cn1	14 µM	4.86		Ki [4]: 441 µM; Kinact (Chlamydia trachomatis [5]): 0.363 min⁻¹; Ratio (Chlamydia trachomatis [6]): 13.7 M⁻¹ s⁻¹
N#Cc1ncc(C(=O)NCc2ccc(C(=O)N3CCc4ccccc4C3)cc2)cn1	16 µM	4.79		
N#Cc1ncc(C(=O)NCc2ccccc2)cn1	154 µM	3.82		
COc1ccccc1CNC(=O)c1ccc(CNC(=O)c2cnc(C#N)nc2)cc1	31 µM	4.5	16.9 µg/mL (≈ 42.1 µM)	Ki [4]: 276 µM
CC(C)(C)N(Cc1ccc(C(=O)Cc2ccccc2)cc1)C(=O)c1cnc(C#N)nc1	41 µM	4.13	9.88 µg/mL (≈ 24 µM)	Activity (Chlamydia trachomatis [7]): 44.93 um2; Activity (Chlamydia trachomatis [8]): 23.3 um2; Activity (Chlamydia trachomatis [9]): 16.5%; Activity (Chlamydia trachomatis [10]): 38.5%; Activity (Chlamydia trachomatis [11]): 24.83 um; Activity (Chlamydia trachomatis [12]): 31.5%; Activity (Chlamydia trachomatis [13]): 51.5%; Activity (Chlamydia trachomatis [14]): 18.05 um; Activity (Chlamydia trachomatis [15]): 55.5%; Activity (Chlamydia trachomatis [16]): 81%
N#Cc1ncc(C(=O)NCc2ccc(C(=O)NCc3nccs3)cc2)cn1	31 µM	4.51		
N#Cc1ncc(C(=O)NCc2ccc(C(=O)NCc3ccccc3)cc2)cn1	27 µM	4.57	19.4 µg/mL (≈ 52.2 µM)	Ki [4]: 226 µM
C[C@H]1c2cccc(O)c2C(=O)C2=C(O)[C@]3(O)C(=O)C(C(N)=O)=C(O)[C@@H](N(C)C)[C@@H]3[C@@H](O)[C@@H]21 [DOXYCYCLINE ANHYDROUS]			0.018 µg/mL (≈ 0.0405 µM)	fold change (FC) (Chlamydia trachomatis [17]): 5.3; Activity (Chlamydia trachomatis [18]): Active
Cc1cccc(CNC(=O)c2ccc(CNC(=O)c3cnc(C#N)nc3)cc2)c1	21 µM	4.68	17.3 µg/mL (≈ 44.9 µM)	
N#Cc1ncc(C(=O)NCc2ccc(C(=O)NCC3CC3)cc2)cn1	37 µM	4.43	47.7 µg/mL (≈ 142 µM)	
CC(C)CN(CC(C)C)C(=O)c1ccc(CNC(=O)c2cnc(C#N)nc2)cc1	35 µM	4.46	28.4 µg/mL (≈ 72.2 µM)	
N#Cc1ncc(C(=O)NCc2ccc(C(=O)NCC3CCC3)cc2)cn1	21 µM	4.67	38.9 µg/mL (≈ 111 µM)	
C=CS(=O)(=O)Nc1ccccc1-c1ccc(C(=O)N2CCC(O)(Cn3cnc4c(cnn4C)c3=O)CC2)cc1				Ratio [19]: 66 M⁻¹ s⁻¹
C#CCCCNC(=O)c1ccc(-n2cnc(NC(=O)[C@H]3CCN(C#N)C3)c2)cc1				Ratio [20]: 681 M⁻¹ s⁻¹
N#Cc1ncc(C(=O)NCc2ccc(C(=O)NCC3CCCCC3)cc2)cn1	23 µM	4.64		
CCOc1ccccc1CNC(=O)c1ccc(CNC(=O)c2cnc(C#N)nc2)cc1	13 µM	4.9	15.8 µg/mL (≈ 38 µM)	
Cn1c(-c2ccc(CNC(=O)c3cnc(C#N)nc3)cc2)nc2ccccc21	131 µM	3.88		
